According to US9994515B2, “Aryl naphthyl methanone oxime(s) and process for preparation thereof” (Council of Scientific & Industrial Research, priority 2013, dated 2018):
Structures can show the parent of a compound that is named as a salt. Where two headings read alike, the source gives them in different places.

Columns and labels:
[1] = tested on: DU-145; assay: MTT assay in DU-145 prostate tumor cells; assay type: cell-based; conditions: 10 point dose response
[2] = tested on: MDA-MB231; assay: MTT assay in MDA-MB-231 breast tumor cells; assay type: cell-based; conditions: 10 point dose response
[3] = tested on: MCF-7; assay: MTT assay in MCF-7 breast tumor cells; assay type: cell-based; conditions: 10 point dose response
[4] = tested on: Ishikawa; assay: MTT assay in Ishikawa endometrial adenocarcinoma cells; assay type: cell-based; conditions: Table 6, 48 h, 10 point dose response
[5] = tested on: NIH3T3; assay: MTT cytotoxicity assay in NIH3T3 fibroblasts; assay type: cell-based, mouse
Procedure: To consider a molecule as a candidate compound in cancer drug therapy, the test compound must have specific cytotoxicity towards the cancer cells without affecting normal cell growth. Therefore, all active compounds were assessed for toxicity in non-cancer cell-lines: mouse fibroblast cell line (NIH3T3) and monkey kidney epithelial cells (Vero). […] Therefore, based on safety index ([…]), 5d [Centans; based on IUPAC name prefixed with Central Drug Research Institute's signature (Cent)] was selected as a lead compound.

[6] = tested on: HL60; assay: MTT cytotoxicity assay in HL-60 cells; assay type: cell-based
[7] = tested on: K562; assay: MTT cytotoxicity assay in K562 cells; assay type: cell-based
[8] = tested on: U937; assay: Cytotoxicity in U937 cells; assay type: cell-based; conditions: Table 2; fumarate
[9] = tested on: Kasumi 1; assay: Cytotoxicity in Kasumi 1 cells; assay type: cell-based; conditions: Table 2; fumarate
[10] = tested on: PBMCs isolated from healthy individuals; assay: MTT cytotoxicity in PBMCs from healthy controls; conditions: 1 μM, 48 h; for % cell death, Average: healthy control, average of C1-C3
[11] = Homo sapiens, DU-145, Table 6, 48 h
[12] = Homo sapiens, MDA-MB-231, Table 6, 48 h
[13] = Mus musculus, NIH3T3, 48 h, Table 1, MTT assay after 48 h treatment
[14] = Homo sapiens, MCF7, Table 6, 48 h
[15] = Homo sapiens, HL-60, 48 h, Table 1, MTT assay after 48 h treatment
[16] = Homo sapiens, K562, 48 h, Table 1, MTT assay after 48 h treatment
[17] = Table 1, MTT assay after 48 h treatment, fumarate

Compound | melting point [°C] | IC50 [1, 11] [µM] | IC50 [2, 12] [µM] | IC50 [3, 14] [µM] | IC50 ([4]; Homo sapiens, Ishikawa) [µM] | IC50 [5, 13] [µM] | IC50 [6, 15] [µM] | IC50 [7, 16] [µM] | other results
4-hydroxy-tamoxifen [OH-TAM, reference compound] |  |  |  |  |  |  |  |  | IC50 ([1]; Table 6, 48 h): 10 µM; IC50 ([2]; Table 6, 48 h): 8 µM; IC50 ([3]; Table 6, 48 h): 8.8 µM; IC50 [4]: 20 µM
CSc1ccc(/C(=N/O)c2cccc3ccccc23)cc1 [Compound 4a, (4-(methylthio)phenyl)(naphthalen-1-yl)methanone oxime] | 135 | > 50 | 20 | 18 | > 50 | > 50 | > 50 | > 50 | 
COc1ccc(/C(=N/O)c2cccc3ccccc23)cc1 [Compound 4b, (4-methoxyphenyl)(naphthalen-1-yl)methanone oxime] | 132 |  |  |  |  | > 50 | > 50 | > 50 | 
CSc1ccc(/C(=N/OCCN2CCCC2)c2cccc3ccccc23)cc1 [Compound 5b, (4-(methylthio)phenyl)(naphthalen-1-yl)methanone O-2-(pyrrolidin-1-yl)ethyl oxime oxalate] |  | 9.5 | 5.01 | 6.6 | 6 | 20 | 19 | 25 | 
CSc1ccc(/C(=N/OCCN(C)C)c2cccc3ccccc23)cc1 [Compound 5c, (4-(methylthio)phenyl)(naphthalen-1-yl)methanone O-2-(dimethylamino)ethyl oxime oxalate] |  | 15 | 12.8 | 14 | 9 | > 50 | > 50 | > 50 | 
CSc1ccc(/C(=N/OCCN2CCOCC2)c2cccc3ccccc23)cc1 [Compound 5f, (4-(methylthio)phenyl)(naphthalen-1-yl)methanone O-2-morpholinoethyl oxime] |  | > 50 | > 50 | > 50 | > 50 | 26 | > 50 | > 25 | 
CCN(CC)CCO/N=C(/c1ccc(SC)cc1)c1cccc2ccccc12 [Compound 5j, (4-(methylthio)phenyl)(naphthalen-1-yl)methanone O-2-(diethylamino)ethyl oxime fumarate] |  |  |  |  |  |  |  |  | IC50 [5, 17]: 25 µM; IC50 ([5]; Table 2, normal cell line, fumarate): 25 µM; IC50 [8]: > 24 µM; IC50 [9]: 20 µM; IC50 [6, 17]: 10 µM; IC50 ([6]; Table 2, fumarate): 10 µM; IC50 [7, 17]: 8.5 µM; IC50 ([7]; Table 2, fumarate): 8.5 µM
COc1ccc(/C(=N/OCCN2CCCCC2)c2cccc3ccccc23)cc1 [Compound 6a, (4-methoxyphenyl)(naphthalen-1-yl)methanone O-2-(piperidin-1-yl)ethyl oxime oxalate] |  | > 50 | > 50 | 18 | > 50 | > 50 | > 50 | > 50 | 
COc1ccc(/C(=N/OCCN2CCCC2)c2cccc3ccccc23)cc1 [Compound 6b, (4-methoxyphenyl)(naphthalen-1-yl)methanone O-2-(pyrrolidin-1-yl)ethyl oxime oxalate] |  | > 50 | > 50 | 25 | > 50 | > 50 | > 50 | > 50 | 
COc1ccc(/C(=N/OCCN(C)C)c2cccc3ccccc23)cc1 [Compound 6c, (4-methoxyphenyl)(naphthalen-1-yl)methanone O-2-(dimethylamino)ethyl oxime oxalate] |  | > 50 | > 50 | 15 | > 50 | > 50 | > 50 | > 50 | 
Cc1nc(Nc2ncc(C(=O)Nc3c(C)cccc3Cl)s2)cc(N2CCN(CCO)CC2)n1 [Dasatinib] |  |  |  |  |  |  |  |  | IC50 ([6]; Homo sapiens, HL-60, 48 h, Table 3, MTT, 48 h, 10 point dose response, read-out: IC 50 HL 60): 6.85 µM; % cell death ([10]; healthy control sample C1): 2.39%; % cell death ([10]; healthy control sample C2): 12.03%; % cell death ([10]; healthy control sample C3): 18.93%; % cell death, Average [10]: 11.12%; IC50 ([7]; Homo sapiens, K562, 48 h, Table 3, MTT, 48 h, 10 point dose response, read-out: IC 50 K562): 6.8 µM
Cc1ccc(NC(=O)c2ccc(CN3CCN(C)CC3)cc2)cc1Nc1nccc(-c2cccnc2)n1 [Imatinib] |  |  |  |  |  |  |  |  | % cell death ([10]; healthy control sample C1): 10.51%; % cell death, Average [10]: 16.12%

Continued, in another order:

melting point [°C] | IC50 [1, 11] [µM] | IC50 [2, 12] [µM] | IC50 [3, 14] [µM] | IC50 ([4]; Homo sapiens, Ishikawa) [µM] | Compound | IC50 [5, 13] [µM] | IC50 [6, 15] [µM] | IC50 [7, 16] [µM] | other results
105 |  |  |  |  | COc1ccc(/C(=N/OC(C)CN(C)C)c2cccc3ccccc23)cc1 (stereo not drawn) (as salt: oxalate) [Compound 6f, (4-methoxyphenyl)(naphthalen-1-yl)methanone O-1-(dimethylamino)propan-2-yl oxime oxalate] |  |  |  | 
122 |  |  |  |  | COc1ccc(/C(=N/OCCN2CCCCCC2)c2cccc3ccccc23)cc1 (as salt: oxalate) [Compound 6g, (4-methoxyphenyl)(naphthalen-1-yl)methanone O-2-(azepan-1-yl)ethyl oxime oxalate] |  |  |  | 
155 |  |  |  |  | COc1ccc(/C(=N/OCCCN(C)C)c2cccc3ccccc23)cc1 (as salt: oxalate) [Compound 6i, (4-methoxyphenyl)(naphthalen-1-yl)methanone O-3-(dimethylamino)propyl oxime oxalate] |  |  |  | 
137 |  |  |  |  | CSc1ccc(/C(=N/OCCCN2CCCCC2)c2cccc3ccccc23)cc1 (as salt: oxalate) [Compound 7a, (4-(methylthio)phenyl)(naphthalen-1-yl)methanone O-3-(piperidin-1-yl)propyl oxime oxalate] |  |  |  | 
145 |  |  |  |  | CSc1ccc(/C(=N/OCCCN2CCC(C)CC2)c2cccc3ccccc23)cc1 (as salt: oxalate) [Compound 7c, (4-(methylthio)phenyl)(naphthalen-1-yl)methanone O-3-(4-methylpiperidin-1-yl)propyl oxime oxalate] |  |  |  | 
 | > 50 | > 50 | 20 | > 50 | CCN(CC)CCO/N=C(/c1ccc(OC)cc1)c1cccc2ccccc12 [Compound 6d, (4-methoxyphenyl)(naphthalen-1-yl)methanone O-2-(diethylamino)ethyl oxime oxalate] | > 50 | > 50 | > 50 | 
 | > 50 | > 50 | 23 | > 50 | COc1ccc(/C(=N/OCCN(C(C)C)C(C)C)c2cccc3ccccc23)cc1 [Compound 6e, (4-methoxyphenyl)(naphthalen-1-yl)methanone O-2-(diisopropylamino)ethyl oxime oxalate] | > 50 | > 50 | > 50 | 
 | > 50 | > 50 | 20.5 | > 50 | COc1ccc(/C(=N/OCCCN(C)C)c2cccc3ccccc23)cc1 [Compound 6i, (4-methoxyphenyl)(naphthalen-1-yl)methanone O-3-(dimethylamino)propyl oxime oxalate] | > 50 | > 50 | > 50 | 
 | 15 | 20 | 5 | 12 | CSc1ccc(/C(=N/OCCCN2CCCCC2)c2cccc3ccccc23)cc1 [Compound 7a, (4-(methylthio)phenyl)(naphthalen-1-yl)methanone O-3-(piperidin-1-yl)propyl oxime oxalate] | > 50 | > 50 | > 20 | 
89 | > 50 | > 50 | > 50 | > 50 | CSc1ccc(/C(=N/OCCCN2CCOCC2)c2cccc3ccccc23)cc1 [Compound 7b, (4-(methylthio)phenyl)(naphthalen-1-yl)methanone O-3-morpholinopropyl oxime] | > 50 | > 50 | > 50 | 
 | 7.5 | 18 | 8 | 18 | CSc1ccc(/C(=N/OCCCCN2CCCCC2)c2cccc3ccccc23)cc1 [Compound 8a, (4-(methylthio)phenyl)(naphthalen-1-yl)methanone O-4-(piperidin-1-yl)butyl oxime] | 20 | 16 | 6.34 | 
 | > 50 | > 50 | > 50 | > 50 | CSc1ccc(/C(=N/OCCCCN2CCCC2)c2cccc3ccccc23)cc1 [Compound 8b, (4-(methylthio)phenyl)(naphthalen-1-yl)methanone O-4-(pyrrolidin-1-yl)butyl oxime] | > 50 | > 50 | > 50 | 
